Measured values reported in US20240239796A1, “CRYSTALLINE POLYMORPHS OF EPIDERMAL GROWTH FACTOR RECEPTOR INHIBITOR, AND COMPOSITIONS AND METHODS THEREOF” (Crimson BioPharm Inc., priority 2022, published 2024).
Where two headings read alike, the source gives them in different places.

Experiments:
Assay type in all cases: physicochemical
[1] = Inter-conversion study (competitive slurry); conditions: for Slurry at 50° C. 1 or 7 d (wet cake) / Slurry at RT (~20° C.) 3 d (wet cake): competitive slurry in IPA, resulting form; for Form at 7 d: slurry in ACN/water 1/9 (v/v); for form after slurry: ACN-water (1/9)
Experimental: (20 mg/mL) and RT (10 mg/mL), and in ACN-water (1/9) at 50° C. (10 mg/mL) and RT (5 mg/mL).
The mixture of crystalline Form I and crystalline Form V of the sample was suspended in IPA at 50° C. (20 mg/mL) and RT (5 mg/mL).
The residual solids from both mixtures were obtained and characterized.

Rough solubility testing = conditions: for solubility: thermodynamic from solid, ~20° C., read-out: Solubility of Tosylate (mg/mL, ~20° C.); for solubility (in words): RT (~20° C.)
Experimental: About 2 mg of crystalline Form I was weighed into glass vials, and then different selected solvents were added in the vial stepwise until all solid was dissolved. This experiment was conducted by manual dilution combined with visual observation at ˜20° C. The total volume of solvent added was recorded.

Slurry study = conditions: XRPD; for Form of wet cake at 1 day: 50° C.; for Form of wet cake at 4 days: RT (~20° C.), ~25 mg/mL
Experimental: Appropriate amount of crystalline Form I was added into different solvents to make suspension. The suspensions were kept stirring at room temperature (RT, ˜20° C.) or 50° C., respectively. Solid samples were collected and analyzed by XRPD at a specific time. If new XRPD patterns were identified, the sample was further analyzed by DSC and TGA.

Water activity study = test: Water activity study
Experimental: A certain amount (e.g., ˜70 mg) of crystalline Form I was stirred in 500 μL of acetone-water mixtures with different water content (5%, 10%, 30%, 50%, 70% and 90%) at RT (˜20° C.) for 3, 7 or 8 days. Residual solids were collected and characterized.

[2] = Stability study (grinding, high humidity)
Experimental: A certain amount (e.g., ˜10 mg) of crystalline Form I was ground for 2 min or put at 25° C./92.5% RH for 2 weeks. Then the sample was tested by XRPD to determine the physical stability.

[3] = Form conversion on heating / desolvation (XRPD, FIG. 5, FIG. 8)
[4] = Dynamic moisture sorption analysis (DVS)
Experimental: DVS was determined using DVS Intrinsic (SMS, UK). A sample was tested at a targeted relative humidity (RH) of 10 to 90% full cycle in step mode. The analysis was performed in 10% RH increments: • Equilibrium: 60 min; • RH (%) measurement points: • Sorption: 0, 10, 20, 30, 40, 50, 60, 70, 80, 90 • Desorption: 80, 70, 60, 50, 40, 30, 20, 10, 0.

[5] = slurry in Acetone/water 1/1 (v/v), water activity 0.93, RT
[6] = slurry in Acetone/water 1/9 (v/v), water activity 0.98, RT
[7] = slurry in Acetone/water 3/7 (v/v), water activity 0.95, RT
[8] = slurry in Acetone/water 7/3 (v/v), water activity 0.88, RT
[9] = slurry in Acetone/water 9/1 (v/v), water activity 0.72, RT
[10] = slurry in Acetone/water 19/1 (v/v), water activity 0.31, RT

## C=CC(=O)Nc1cc(Nc2nccc(-n3ccc4cccnc43)n2)c(OC)cc1N(C)CCN(C)C.Cc1ccc(S(=O)(=O)O)cc1 [Form I and III (1:1)]
[1]; 50° C.
  Slurry at 50° C. 1 or 7 d (wet cake): Form I
  Form at 7 d: Form III
[1]; RT
  Slurry at RT (~20° C.) 3 d (wet cake): Form I
[1]; RT (~20° C.)
  Form at 7 d: Form VI

## C=CC(=O)Nc1cc(Nc2nccc(-n3ccc4cccnc43)n2)c(OC)cc1N(C)CCN(C)C.Cc1ccc(S(=O)(=O)O)cc1 [Form I and V (1:1)]
[1]; 50° C.
  Slurry at 50° C. 1 or 7 d (wet cake): From I
[1]; RT
  Slurry at RT (~20° C.) 3 d (wet cake): Form I

## C=CC(=O)Nc1cc(Nc2nccc(-n3ccc4cccnc43)n2)c(OC)cc1N(C)CCN(C)C.Cc1ccc(S(=O)(=O)O)cc1 [Form I, N-(5-((4-(1H-pyrrolo[2,3-b]pyridin-1-yl)pyrimidin-2-yl)amino)-2-((2-(dimethylamino)ethyl)(methyl)amino)-4-methoxyphenyl)acrylamide tosylate salt]
Rough solubility testing; ACN (acetonitrile), organic solvent or mixture, solvent ACN
  solubility: ~2.2 mg/mL
Rough solubility testing; in MeOH and DCM
  solubility (in words): relatively high solubility
Rough solubility testing; in the other single solvents (not MeOH, DCM)
  solubility (in words): very low solubility
Rough solubility testing; organic solvent or mixture, solvent Acetone
  solubility: ~0.95 mg/mL
Rough solubility testing; organic solvent or mixture, solvent DCM
  solubility: ~5.1 mg/mL
Rough solubility testing; organic solvent or mixture, solvent EA
  solubility: < 1 mg/mL
Rough solubility testing; organic solvent or mixture, solvent EtOH
  solubility: ~1.9 mg/mL
Rough solubility testing; organic solvent or mixture, solvent Heptane
  solubility: < 1 mg/mL
Rough solubility testing; organic solvent or mixture, solvent IPA
  solubility: < 1.11 mg/mL
Rough solubility testing; organic solvent or mixture, solvent IPAC
  solubility: < 1.2 mg/mL
Rough solubility testing; organic solvent or mixture, solvent Isobutanol
  solubility: < 1 mg/mL
Rough solubility testing; organic solvent or mixture, solvent MEK
  solubility: ~0.92 mg/mL
Rough solubility testing; organic solvent or mixture, solvent MTBE
  solubility: < 1.1 mg/mL
Rough solubility testing; organic solvent or mixture, solvent MeOH
  solubility: ~27.3 mg/mL
Rough solubility testing; organic solvent or mixture, solvent THF
  solubility: < 1.14 mg/mL
Rough solubility testing; organic solvent or mixture, solvent Toluene
  solubility: < 1.2 mg/mL
Rough solubility testing; solvent Water
  solubility: < 1.02 mg/mL
Slurry study; slurry in ACN
  Form of wet cake at 1 day: Form I
  Form of wet cake at 4 days: Form I
Slurry study; slurry in Acetone
  Form of wet cake at 1 day: Form I
  Form of wet cake at 4 days: Form I
Slurry study; slurry in EA
  Form of wet cake at 1 day: Form I
  Form of wet cake at 4 days: Form I
Slurry study; slurry in EtOH
  Form of wet cake at 1 day: Form I
  Form of wet cake at 4 days: Form I
Slurry study; slurry in Heptane
  Form of wet cake at 1 day: Form I
  Form of wet cake at 4 days: Form I
Slurry study; slurry in IPA
  Form of wet cake at 1 day: Form I
  Form of wet cake at 4 days: Form I
Slurry study; slurry in IPAC
  Form of wet cake at 1 day: Form I
  Form of wet cake at 4 days: Form I
Slurry study; slurry in Isobutanol
  Form of wet cake at 1 day: Form I
  Form of wet cake at 4 days: Form I
Slurry study; slurry in MEK
  Form of wet cake at 1 day: Form I
  Form of wet cake at 4 days: Form I
Slurry study; slurry in MTBE
  Form of wet cake at 1 day: Form I
  Form of wet cake at 4 days: Form I
Slurry study; slurry in THF
  Form of wet cake at 1 day: Form I
  Form of wet cake at 4 days: Form I
Slurry study; slurry in Toluene
  Form of wet cake at 1 day: Form I
  Form of wet cake at 4 days: Form I
Slurry study; slurry in Water
  Form of wet cake at 1 day: Form I
  Form of wet cake at 4 days: Form I
Water activity study; [5]
  Form at 3 d: Form V
  Form at 7 d: Form V
Water activity study; [6]
  Form at 3 d: Form I
  Form at 7 d: Form I
Water activity study; [7]
  Form at 3 d: Form V
  Form at 7 d: Form V
Water activity study; [8]
  Form at 3 d: Form V
  Form at 7 d: Form V
Water activity study; [9]
  Form at 3 d: Form V
  Form at 7 d: Form V
Water activity study; [10]
  Form at 3 d: Form I
  Form at 7 d: Form VII
  Form at 8 d: Form V
[2]; after stressing with temperature and high RH
  solid-state stability: good solid-state stability
[2]; high humidity, 25° C./92.5% RH for 2 weeks
  Physical stability (form change by XRPD): No form change
[2]; mechanical stress (grinding, 2 min)
  Physical stability (form change by XRPD): No form change
[1]; 50° C.
  form after slurry: crystalline Form III
[1]; RT
  form after slurry: crystalline Form VI
[1]; polymorph screening, anhydrate forms
  relative stability among crystal forms: most stable anhydrate form

## C=CC(=O)Nc1cc(Nc2nccc(-n3ccc4cccnc43)n2)c(OC)cc1N(C)CCN(C)C.Cc1ccc(S(=O)(=O)O)cc1 [Form II, N-(5-((4-(1H-pyrrolo[2,3-b]pyridin-1-yl)pyrimidin-2-yl)amino)-2-((2-(dimethylamino)ethyl)(methyl)amino)-4-methoxyphenyl)acrylamide tosylate salt]
[3]; desolvation at 170° C.
  form conversion after desolvation: transform to crystalline Form III

## C=CC(=O)Nc1cc(Nc2nccc(-n3ccc4cccnc43)n2)c(OC)cc1N(C)CCN(C)C.Cc1ccc(S(=O)(=O)O)cc1 [Form IV, N-(5-((4-(1H-pyrrolo[2,3-b]pyridin-1-yl)pyrimidin-2-yl)amino)-2-((2-(dimethylamino)ethyl)(methyl)amino)-4-methoxyphenyl)acrylamide tosylate salt]
[3]; heated to 200° C.
  form conversion on heating: convert to crystalline Form III

## C=CC(=O)Nc1cc(Nc2nccc(-n3ccc4cccnc43)n2)c(OC)cc1N(C)CCN(C)C.Cc1ccc(S(=O)(=O)O)cc1 [Form VI, N-(5-((4-(1H-pyrrolo[2,3-b]pyridin-1-yl)pyrimidin-2-yl)amino)-2-((2-(dimethylamino)ethyl)(methyl)amino)-4-methoxyphenyl)acrylamide tosylate salt]
[4]; 80% RH and 25° C.
  water sorption: 0.72%
[4]; DVS, 80% RH and 25° C.
  hygroscopicity: slightly hygroscopic
[4]; after DVS test
  crystalline form change after DVS test: no crystalline form change
